Laboratory results as given in the NIST ThermoML archive (doi:10.1016/j.tca.2017.08.004).

Key:
[1] = Crystal; for vapor or sublimation pressure: Transpiration method
[2] = Molar enthalpy of transition or fusion; conditions: Crystal; DSC

CC(=O)c1ccc(N=C2SCC3CCCN2C3)cc1 (stereo unspecified)
[1]
Conditions | vapor or sublimation pressure [kPa]
370.15 K | 1.72e-05
372.15 K | 2.17e-05
373.15 K | 2.52e-05
374.15 K | 2.65e-05
375.15 K | 3.08e-05
377.15 K | 3.73e-05
379.15 K | 4.55e-05
381.15 K | 5.67e-05
383.15 K | 6.72e-05
385.15 K | 8.05e-05
387.15 K | 9.63e-05
389.15 K | 0.0001225
390.15 K | 0.0001287
391.15 K | 0.0001437
392.15 K | 0.0001637

Fc1ccc(N=C2[Se]CC3CCCN2C3)cc1 (stereo unspecified) [N-(4-fluorophenyl)-3-selena-1-azabicyclo[3.3.1]nonan-2-imine]
[1]
Conditions | Normal melting temperature [°C] | vapor or sublimation pressure [kPa]
344.15 K | – | 6.71e-05
346.15 K | – | 8.23e-05
348.15 K | – | 0.0001009
350.15 K | – | 0.0001254
352.15 K | – | 0.0001539
354.15 K | – | 0.0001821
357.15 K | – | 0.0002441
359.15 K | – | 0.0002956
360.15 K | – | 0.0003273
361.15 K | – | 0.00036
362.15 K | – | 0.0003964
363.15 K | – | 0.0004316
364.15 K | – | 0.0004719
365.15 K | – | 0.0005306
DTA | 103.1 | –

Conditions | Molar enthalpy of transition or fusion [kcal/mol]
[2] | 5.23

N#Cc1ccc(N=C2SCC3CCCN2C3)cc1 (stereo unspecified)
[1]
Conditions | vapor or sublimation pressure [kPa]
341.15 K | 4.41e-05
343.15 K | 6.35e-05
345.15 K | 8.28e-05
347.15 K | 0.0001196
349.15 K | 0.0001553
351.15 K | 0.0002074
353.15 K | 0.0002772
354.15 K | 0.0002989
356.15 K | 0.0004234
358.15 K | 0.000541
360.15 K | 0.0007001
361.15 K | 0.0008286

CC(C)c1ccc(N=C2SCC3CCCN2C3)cc1 (stereo unspecified)
[1]
Conditions | vapor or sublimation pressure [kPa]
308.15 K | 7.9e-06
310.15 K | 1.01e-05
311.15 K | 1.19e-05
313.15 K | 1.61e-05
314.15 K | 1.86e-05
315.15 K | 2.13e-05
316.15 K | 2.3e-05
317.15 K | 2.74e-05
318.15 K | 3.07e-05
319.15 K | 3.29e-05
320.15 K | 3.89e-05
322.15 K | 4.8e-05
323.15 K | 5.57e-05
